Results from patent publication US20170232031A1, “Inhibitors of Zika Virus” (Riboscience LLC, priority 2016, published 2017).
Like-named read-outs stand apart in the source and are kept apart here.

Legend:
human RNA polymerase I [1] = target: T1, human RNA polymerase I (Homo sapiens, UniProt O95602+Q9H9Y6); assay: Human RNA polymerase I activity in cell extracts; type: biochemical
T1 construct: endogenous in cells; host or cells: HeLa

[2] = target: T2, mitochondrial DNA polymerase pol γ (Homo sapiens, UniProt P54098); assay: Inhibition of mitochondrial DNA polymerase pol γ; type: biochemical; details: read-out: DNA pol γ IC50
T2 sequence (P54098 1-1239): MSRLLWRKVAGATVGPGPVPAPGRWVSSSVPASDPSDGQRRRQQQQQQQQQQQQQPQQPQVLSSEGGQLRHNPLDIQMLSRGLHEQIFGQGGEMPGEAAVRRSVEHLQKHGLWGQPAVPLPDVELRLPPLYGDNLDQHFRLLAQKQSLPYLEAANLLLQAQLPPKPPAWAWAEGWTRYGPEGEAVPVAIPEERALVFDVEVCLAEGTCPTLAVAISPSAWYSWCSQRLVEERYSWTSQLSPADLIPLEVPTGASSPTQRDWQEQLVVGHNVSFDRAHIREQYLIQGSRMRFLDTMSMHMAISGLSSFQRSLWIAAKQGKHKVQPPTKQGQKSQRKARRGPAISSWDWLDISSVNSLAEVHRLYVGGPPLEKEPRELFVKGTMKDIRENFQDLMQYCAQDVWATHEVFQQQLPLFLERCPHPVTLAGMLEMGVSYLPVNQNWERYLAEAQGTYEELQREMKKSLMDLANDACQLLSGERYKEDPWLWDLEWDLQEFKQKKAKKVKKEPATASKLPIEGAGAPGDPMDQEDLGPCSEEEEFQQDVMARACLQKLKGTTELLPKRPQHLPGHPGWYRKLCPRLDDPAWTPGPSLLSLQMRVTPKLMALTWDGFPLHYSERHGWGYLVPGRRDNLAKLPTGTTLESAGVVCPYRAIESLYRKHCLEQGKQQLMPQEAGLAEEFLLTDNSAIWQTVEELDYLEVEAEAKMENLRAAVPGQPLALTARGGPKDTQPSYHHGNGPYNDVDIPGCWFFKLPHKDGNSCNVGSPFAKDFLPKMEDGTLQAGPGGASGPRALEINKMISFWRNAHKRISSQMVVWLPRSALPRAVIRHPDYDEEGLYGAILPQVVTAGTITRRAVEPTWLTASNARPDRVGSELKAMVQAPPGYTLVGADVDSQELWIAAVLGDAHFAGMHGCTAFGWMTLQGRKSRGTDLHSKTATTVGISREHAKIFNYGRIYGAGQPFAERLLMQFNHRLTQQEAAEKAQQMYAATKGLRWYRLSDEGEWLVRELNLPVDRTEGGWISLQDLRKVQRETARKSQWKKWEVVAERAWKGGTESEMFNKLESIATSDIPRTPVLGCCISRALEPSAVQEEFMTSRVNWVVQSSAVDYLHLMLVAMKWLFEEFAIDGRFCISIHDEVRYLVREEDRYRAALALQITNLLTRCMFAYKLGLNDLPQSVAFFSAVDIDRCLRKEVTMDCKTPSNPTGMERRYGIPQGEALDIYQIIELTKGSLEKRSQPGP

Dengue virus polymerase = Dengue virus polymerase (Dengue virus type 2, UniProt P29990); assay: Inhibition of Dengue virus polymerase; type: biochemical
influenza polymerase = influenza polymerase (Influenza A virus, UniProt P03431); assay: Activity against influenza polymerase; type: biochemical
human RNA polymerase III [3] = target: T3, human RNA polymerase III (Homo sapiens, UniProt O14802+Q9NW08); assay: Human RNA polymerase III activity in cell extracts; type: biochemical
T3 construct: endogenous in cells; host or cells: HeLa

human DNA polymerase α = target: T4, human DNA polymerase α (Homo sapiens, UniProt P09884); assay: Inhibition of human DNA polymerase α; type: biochemical
T4 sequence (P09884 1-1462): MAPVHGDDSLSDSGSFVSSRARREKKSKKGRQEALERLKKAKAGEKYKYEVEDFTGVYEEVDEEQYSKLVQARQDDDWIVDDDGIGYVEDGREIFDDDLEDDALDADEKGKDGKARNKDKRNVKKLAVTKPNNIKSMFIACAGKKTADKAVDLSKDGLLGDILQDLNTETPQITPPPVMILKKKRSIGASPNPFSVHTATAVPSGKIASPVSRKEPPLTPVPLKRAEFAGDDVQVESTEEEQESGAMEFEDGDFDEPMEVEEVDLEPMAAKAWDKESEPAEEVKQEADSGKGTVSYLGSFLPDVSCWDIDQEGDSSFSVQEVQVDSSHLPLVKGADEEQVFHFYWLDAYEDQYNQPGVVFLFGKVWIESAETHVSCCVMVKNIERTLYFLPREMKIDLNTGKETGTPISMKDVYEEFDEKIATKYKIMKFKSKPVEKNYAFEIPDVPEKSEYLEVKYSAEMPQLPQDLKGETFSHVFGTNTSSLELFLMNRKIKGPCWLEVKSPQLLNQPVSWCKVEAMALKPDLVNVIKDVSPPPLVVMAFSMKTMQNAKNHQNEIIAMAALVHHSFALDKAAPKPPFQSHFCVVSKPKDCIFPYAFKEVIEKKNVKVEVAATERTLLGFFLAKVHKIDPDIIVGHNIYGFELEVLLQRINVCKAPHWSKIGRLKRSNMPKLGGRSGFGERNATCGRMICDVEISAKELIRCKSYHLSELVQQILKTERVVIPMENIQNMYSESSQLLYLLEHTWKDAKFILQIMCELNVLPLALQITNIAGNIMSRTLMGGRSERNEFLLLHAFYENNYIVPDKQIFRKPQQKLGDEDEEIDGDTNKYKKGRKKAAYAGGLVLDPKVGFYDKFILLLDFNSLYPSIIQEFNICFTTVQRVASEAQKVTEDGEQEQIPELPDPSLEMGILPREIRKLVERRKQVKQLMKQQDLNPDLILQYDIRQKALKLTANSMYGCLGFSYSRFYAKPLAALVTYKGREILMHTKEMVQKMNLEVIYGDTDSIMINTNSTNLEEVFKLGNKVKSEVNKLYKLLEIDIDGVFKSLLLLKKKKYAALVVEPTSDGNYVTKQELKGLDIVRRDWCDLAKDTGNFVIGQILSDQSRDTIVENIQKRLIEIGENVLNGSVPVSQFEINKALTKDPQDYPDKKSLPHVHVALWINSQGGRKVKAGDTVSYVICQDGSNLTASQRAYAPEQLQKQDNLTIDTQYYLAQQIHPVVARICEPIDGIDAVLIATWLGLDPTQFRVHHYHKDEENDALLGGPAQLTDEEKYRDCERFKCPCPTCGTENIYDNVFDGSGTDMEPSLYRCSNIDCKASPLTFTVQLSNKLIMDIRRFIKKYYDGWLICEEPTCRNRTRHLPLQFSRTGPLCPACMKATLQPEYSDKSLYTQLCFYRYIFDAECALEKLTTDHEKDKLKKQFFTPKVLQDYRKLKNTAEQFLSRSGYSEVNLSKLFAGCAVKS

human DNA polymerase β = human DNA polymerase β (Homo sapiens, UniProt P06746); assay: Inhibition of human DNA polymerase β; type: biochemical
human RNA polymerase II [4] = target: T5, human RNA polymerase II (Homo sapiens, UniProt P24928+P30876); assay: Human RNA polymerase II activity in cell extracts; type: biochemical
T5 construct: endogenous in cells; host or cells: HeLa

RSV polymerase = assay: Activity against RSV polymerase; type: biochemical
HCV polymerase = HCV polymerase (Hepatitis C virus genotype 1a, UniProt P27958); assay: Inhibition of HCV polymerase; type: biochemical
[5] = test system: ZIKV strain MR766 (Genbank LC002520); assay: Antiviral activity against ZIKV replication in cells; type: cell-based, Zika virus
Procedure: (§1) The human hepatoma cell line Huh-7, are cultured in DMEM without phenol-red (Cellgro Mediatech, Cat #10-013-CV containing 4.5 g/l glucose, L-glutamine & sodium pyruvate). The medium is further supplemented with 10% (v/v) FBS (ATLAS Cat # F-0500-A, lot#850114A) and 1% (vlv) penicillin/streptomycin (Cellgro Mediatech #30-022-CI). Cells are maintained at 37° C. in a humidified 5% CO2 atmosphere. Zika virus representative strain titers are measured on BHK-21 cells, using a standard plaque assay procedure. For the determination of EC50 of nucleoside in the antiviral assay, Huh-7 cells are plated in white 96-well plates in MEM media supplemented with 10% FBS and 1% penicillin/streptomycin. After incubation for 24 h, the cells are infected at a multiplicity of infection (MOI) of 0.5 for 2 h at 37° C. Ten three-fold dilutions of compounds are prepared in the same media supplemented with 1% DMSO. After the 2 h adsorption phase, the virus is aspirated off and diluted compound is added to four wells each. Huh-7 cells are plated as described above and exposed to the same concentration range of compounds. Untreated cells are carried along as a control. After a 3-day incubation at 37° C., the cell viability is determined using Cell-titer Glo™ reagent (Promega, Madison, Wis.) that is added to each well and incubated for 5 min. Plates are analyzed using a Thermo Luminoskan plate reader (Waltham, Mass.).

human RNA polymerase I [6] = target: T1, human RNA polymerase I; assay: RNA polymerase I specific reporter gene assay in HeLa cells; type: cell-based; details: 10 or 100 μM (highest soluble concentrations)
[7] = test system: HCV replicon of genotype 1a (H77); assay: HCV replicon genotype 1a antiviral activity; type: cell-based; details: Hepatitis C virus; replicon genotype 1a (H77); read-out: HCV GT1a EC50
[8] = test system: HCV replicon of genotype 1b (Con1); assay: HCV replicon genotype 1b antiviral activity; type: cell-based; details: Hepatitis C virus; replicon genotype 1b (Con1); read-out: HCV GT1b EC50
human RNA polymerase III [9] = target: T3, human RNA polymerase III; assay: RNA polymerase III specific reporter gene assay in HeLa cells; type: cell-based; details: 10 or 100 μM (highest soluble concentrations)
[10] = Cytotoxicity (CC50) alongside HCV GT1a replicon assay; type: cell-based; details: HCV GT1a (H77) replicon cells; replicon genotype 1a (H77)
[11] = Solubility in cell culture medium / aqueous media; details: plasma or biological fluid
[12] = Cytotoxicity (CC50) alongside HCV GT1b replicon assay; details: HCV GT1b (Con1) replicon cells
[13] = Cell viability (CC50) alongside ZIKV antiviral assay, Cell-titer Glo; type: cell-based; details: human, Huh-7 cells
Procedure: as §1

human RNA polymerase II [14] = target: T5, human RNA polymerase II; assay: RNA polymerase II specific reporter gene assay in HeLa cells; type: cell-based; details: 10 or 100 μM (highest soluble concentrations)

[N-]=[N+]=N[C@]1(COP(=O)(O)OP(=O)(O)OP(=O)(O)O)O[C@@H](n2ccc(=O)[nH]c2=O)[C@H](O)[C@@H]1O [Compound 4AUTP, 4′-azido-uridine triphosphate]
IC50 (human RNA polymerase I [1]): > 1000 µM | IC50 [2]: > 1000 µM | inhibition of Dengue virus polymerase (Dengue virus polymerase): inhibition | activity against influenza polymerase (influenza polymerase): not active | IC50 (human RNA polymerase III [3]): > 1000 µM | IC50 (human DNA polymerase α): > 1000 µM | IC50 (human DNA polymerase β): > 1000 µM | IC50 (human RNA polymerase II [4]): > 1000 µM | activity against RSV polymerase (RSV polymerase): not active | inhibition of HCV polymerase (HCV polymerase): inhibition

C[C@H](NP(=O)(OC[C@@]1(N=[N+]=[N-])O[C@@H](n2ccc(=O)[nH]c2=O)[C@H](O)[C@@H]1O)Oc1cccc2ccccc12)C(=O)OCc1ccccc1 (stereo partly drawn) [Compound I-1, benzyl ((((2R,3S,4R,5R)-2-azido-5-(2,4-dioxo-3,4-dihydropyrimidin-1(2H)-yl)-3,4-dihydroxytetrahydrofuran-2-yl)methoxy)(naphthalen-1-yloxy)phosphoryl)-L-alaninate]
EC50 ([5]; Zika virus, ZIKV strain MR766, human Huh-7 or mouse MEF cells): 0.74 µM | antiviral inhibition potency (EC50), in words ([5]; summary statement): submicromolar | inhibition of human RNA polymerase I activity (reporter gene) (human RNA polymerase I [6]): did not inhibit | EC50 [7]: 0.42 µM | EC50 [8]: 0.33 µM | inhibition of human RNA polymerase III activity (reporter gene) (human RNA polymerase III [9]): did not inhibit | CC50 [10]: > 10 µM | solubility [11]: ≤ 10 µM | CC50 [12]: > 10 µM | CC50 at 3 day ([13]; cytotoxicity column of the ZIKV assay, read-out: ZIKV CC50): > 10 µM | CC50 at 3 day ([13]; summary statement, cytotoxicity in cell culture, read-out: Huh-7 cell CC50): > 100 µM | inhibition of human RNA polymerase II activity (reporter gene) (human RNA polymerase II [14]): did not inhibit
